Experimental data published in PubChem BioAssay AID270 (DTP/NCI, 2004).
Where “and” joins values, the source holds several entries; their conditions need not be identical. Equal values may be shown once. Inconclusive results are not listed.

System: BDF1 mice, s.c. Lewis lung carcinoma, T/C %
Assay: NCI In Vivo Anticancer Drug Screen. Data for tumor model Lewis Lung Carcinoma (subcutaneous) in B6D2F1 (BDF1) mice
Method in brief: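 Transplanted tumors grown in mice; compound vs vehicle dosing; endpoint survival or tumor size; ratio T/C.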

[1] = endpoint: mean tumor weight, dose: 50.0 mg/kg/injection, schedule: Q01DX011 (ip), vehicle: saline, higher = larger tumour
[2] = endpoint: mean tumor weight, dose: 12.5 mg/kg/injection, schedule: Q01DX011 (ip), vehicle: saline, higher = larger tumour
[3] = endpoint: mean tumor weight, dose: 25.0 mg/kg/injection, schedule: Q01DX011 (ip), vehicle: saline, higher = larger tumour

Nc1ccn(C2OC(CO)C(O)C2O)c(=O)n1 (stereo not drawn)
T/C (endpoint: mean tumor weight, dose: 20.0 mg/kg/injection, schedule: Q01DX011 (ip), vehicle: saline, higher = larger tumour): 55 % of control | T/C (endpoint: mean tumor weight, dose: 40.0 mg/kg/injection, schedule: Q01DX011 (ip), vehicle: saline, higher = larger tumour): 40 % of control | T/C (endpoint: median survival time, dose: 1.0 mg/kg/injection, schedule: Q01DX011 (adlb), vehicle: water, higher = longer survival): 110 % of control | T/C (endpoint: median survival time, dose: 2.0 mg/kg/injection, schedule: Q01DX011 (adlb), vehicle: water, higher = longer survival): 100 % of control | T/C (endpoint: median tumor weight (est.), dose: 2.7 mg/kg/injection, schedule: Q03HX032 (ip), vehicle: saline, higher = larger tumour): 43 % of control | T/C (endpoint: median tumor weight (est.), dose: 4.0 mg/kg/injection, schedule: Q03HX024 (ip), vehicle: saline, higher = larger tumour): 50 % of control | T/C (endpoint: median tumor weight (est.), dose: 4.0 mg/kg/injection, schedule: Q03HX032 (ip), vehicle: saline, higher = larger tumour): 36 % of control | T/C (endpoint: median tumor weight (est.), dose: 5.3 mg/kg/injection, schedule: Q03HX016 (ip), vehicle: saline, higher = larger tumour): 59 % of control | T/C (endpoint: median tumor weight (est.), dose: 6.0 mg/kg/injection, schedule: Q03HX024 (ip), vehicle: saline, higher = larger tumour): 34 % of control | T/C (endpoint: median tumor weight (est.), dose: 8.0 mg/kg/injection, schedule: Q03HX016 (ip), vehicle: saline, higher = larger tumour): 67 % of control | T/C (endpoint: median tumor weight (est.), dose: 10.0 mg/kg/injection, schedule: Q03HX008 (ip), vehicle: saline, higher = larger tumour): 62 % of control | T/C (endpoint: median tumor weight (est.), dose: 10.0 mg/kg/injection, schedule: Q03HX032 (ip), vehicle: saline, higher = larger tumour): 59 % of control | T/C (endpoint: median tumor weight (est.), dose: 12.0 mg/kg/injection, schedule: Q03HX016 (ip), vehicle: saline, higher = larger tumour): 32 % of control | T/C (endpoint: median tumor weight (est.), dose: 12.5 mg/kg/injection, schedule: Q01DX009 (ip), vehicle: saline, higher = larger tumour): 93 % of control | T/C (endpoint: median tumor weight (est.), dose: 15.0 mg/kg/injection, schedule: Q03HX032 (ip), vehicle: saline, higher = larger tumour): 55 % of control | T/C (endpoint: median tumor weight (est.), dose: 16.0 mg/kg/injection, schedule: Q03HX008 (ip), vehicle: saline, higher = larger tumour): 57 % of control | T/C (endpoint: median tumor weight (est.), dose: 20.0 mg/kg/injection, schedule: Q01DX015 (ip), vehicle: saline, higher = larger tumour): 74 % of control | T/C (endpoint: median tumor weight (est.), dose: 20.0 mg/kg/injection, schedule: Q06HX020 (ip), vehicle: saline, higher = larger tumour): 70 % of control | T/C (endpoint: median tumor weight (est.), dose: 20.0 mg/kg/injection, schedule: Q12HX027 (ip), vehicle: saline, higher = larger tumour): 62 % of control | T/C (endpoint: median tumor weight (est.), dose: 22.5 mg/kg/injection, schedule: Q03HX032 (ip), vehicle: saline, higher = larger tumour): 48 % of control | T/C (endpoint: median tumor weight (est.), dose: 24.0 mg/kg/injection, schedule: Q03HX008 (ip), vehicle: saline, higher = larger tumour): 54 % of control | T/C (endpoint: median tumor weight (est.), dose: 25.0 mg/kg/injection, schedule: Q01DX009 (ip), vehicle: saline, higher = larger tumour): 100 % of control | T/C (endpoint: median tumor weight (est.), dose: 26.0 mg/kg/injection, schedule: Q01DX011 (ip), vehicle: saline, higher = larger tumour): 68 % of control | T/C (endpoint: median tumor weight (est.), dose: 30.0 mg/kg/injection, schedule: Q01DX015 (ip), vehicle: saline, higher = larger tumour): 67 % of control | T/C (endpoint: median tumor weight (est.), dose: 30.0 mg/kg/injection, schedule: Q06HX020 (ip), vehicle: saline, higher = larger tumour): 45 % of control | T/C (endpoint: median tumor weight (est.), dose: 36.0 mg/kg/injection, schedule: Q03HX008 (ip), vehicle: saline, higher = larger tumour): 24 % of control | T/C (endpoint: median tumor weight (est.), dose: 38.0 mg/kg/injection, schedule: Q01DX011 (ip), vehicle: saline, higher = larger tumour): 75 % of control | T/C (endpoint: median tumor weight (est.), dose: 45.0 mg/kg/injection, schedule: Q01DX015 (ip), vehicle: saline, higher = larger tumour): 73 % of control | T/C (endpoint: median tumor weight (est.), dose: 45.0 mg/kg/injection, schedule: Q06HX020 (ip), vehicle: saline, higher = larger tumour): 30 % of control | T/C (endpoint: median tumor weight (est.), dose: 50.0 mg/kg/injection, schedule: Q01DX009 (ip), vehicle: saline, higher = larger tumour): 60 % of control | T/C (endpoint: median tumor weight (est.), dose: 150.0 mg/kg/injection, schedule: Q12HX012 (ip), vehicle: saline, higher = larger tumour): 5 % of control | T/C (endpoint: median tumor weight (est.), dose: 220.0 mg/kg/injection, schedule: Q12HX012 (ip), vehicle: saline, higher = larger tumour): 2 % of control | T/C (endpoint: median tumor weight (est.), dose: 250.0 mg/kg/injection, schedule: Q04DX003 (ip), vehicle: saline, higher = larger tumour): 74 % of control | T/C (endpoint: median tumor weight (est.), dose: 1000.0 mg/kg/injection, schedule: Q04DX003 (ip), vehicle: saline, higher = larger tumour): 64 % of control

O=C(O)c1cc(O)c(O)c(O)c1
T/C [1]: 111 % of control | T/C (endpoint: mean tumor weight, dose: 200.0 mg/kg/injection, schedule: Q01DX011 (ip), vehicle: saline, higher = larger tumour): 89 % of control | T/C (endpoint: mean tumor weight, dose: 400.0 mg/kg/injection, schedule: Q01DX011 (ip), vehicle: saline, higher = larger tumour): 99 % of control

O=C1C=CC(=Nc2ccc(O)c3ncccc23)c2cccnc21
T/C [2]: 94 % of control | T/C [3]: 49 % of control | T/C [1]: 26 % of control

Cc1ccc2c(Nc3ccc(NS(C)(=O)=O)cc3)c3ccccc3nc2c1C
T/C (endpoint: median survival time, dose: 10.0 mg/kg/injection, schedule: Q01DX009 (ip), vehicle: other, higher = longer survival): 98 % of control | T/C (endpoint: median survival time, dose: 40.0 mg/kg/injection, schedule: Q01DX009 (ip), vehicle: other, higher = longer survival): 124 % of control

COC(=O)C1CCC(NC(=O)N(CCCl)N=O)CC1 (stereo not drawn)
T/C (endpoint: median survival time, dose: 14.0 mg/kg/injection, schedule: Q01DX001 (ip), vehicle: saline with Tween-80, higher = longer survival): 206 % of control | T/C (endpoint: median survival time, dose: 21.0 mg/kg/injection, schedule: Q01DX001 (ip), vehicle: saline with Tween-80, higher = longer survival): 223 % of control | T/C (endpoint: median survival time, dose: 23.0 mg/kg/injection, schedule: Q01DX001 (ip), vehicle: saline with Tween-80, higher = longer survival): 180 % of control | T/C (endpoint: median survival time, dose: 24.0 mg/kg/injection, schedule: Q01DX001 (ip), vehicle: saline with Tween-80, higher = longer survival): 152 % of control | T/C (endpoint: median survival time, dose: 32.0 mg/kg/injection, schedule: Q01DX001 (ip), vehicle: saline with Tween-80, higher = longer survival): 188 % of control | T/C (endpoint: median survival time, dose: 36.0 mg/kg/injection, schedule: Q01DX001 (ip), vehicle: saline with Tween-80, higher = longer survival): 219 % of control | T/C (endpoint: median survival time, dose: 54.0 mg/kg/injection, schedule: Q01DX001 (ip), vehicle: saline with Tween-80, higher = longer survival): 198 % of control | T/C (endpoint: median survival time, dose: 81.0 mg/kg/injection, schedule: Q01DX001 (ip), vehicle: saline with Tween-80, higher = longer survival): 94 % of control

CCC[CH2][Sn]1([CH2]CCC)[N](S(=O)(=O)c2ccc(C)cc2)c2ccccc2[N]1S(=O)(=O)c1ccc(C)cc1
T/C (endpoint: median survival time, dose: 1.5 mg/kg/injection, schedule: Q01DX009 (ip), vehicle: Klucel (hydroxypropylcellulose) (HPC), higher = longer survival): 111 % of control | T/C (endpoint: median survival time, dose: 3.0 mg/kg/injection, schedule: Q01DX009 (ip), vehicle: Klucel (hydroxypropylcellulose) (HPC), higher = longer survival): 90 % of control | T/C (endpoint: median survival time, dose: 6.0 mg/kg/injection, schedule: Q01DX009 (ip), vehicle: Klucel (hydroxypropylcellulose) (HPC), higher = longer survival): 101 % of control

NC(=S)N/N=C/c1ccc(O)cn1
T/C (endpoint: median survival time, dose: 18.8 mg/kg/injection, schedule: Q01DX009 (ip), vehicle: saline with Tween-80, higher = longer survival): 94 % of control | T/C (endpoint: median survival time, dose: 37.5 mg/kg/injection, schedule: Q01DX009 (ip), vehicle: saline with Tween-80, higher = longer survival): 106 % of control and 119 % of control | T/C (endpoint: median survival time, dose: 75.0 mg/kg/injection, schedule: Q01DX009 (ip), vehicle: saline with Tween-80, higher = longer survival): 97 % of control | T/C (endpoint: median survival time, dose: 150.0 mg/kg/injection, schedule: Q01DX009 (ip), vehicle: saline with Tween-80, higher = longer survival): 121 % of control

C=C1c2[nH]c3ccccc3c2CN2CCC1/C(=C/C)C2 (stereo not drawn)
T/C (endpoint: mean tumor weight, dose: 0.5 mg/kg/injection, schedule: Q01DX011 (ip), vehicle: saline, higher = larger tumour): 104 % of control | T/C (endpoint: mean tumor weight, dose: 1.0 mg/kg/injection, schedule: Q01DX011 (ip), vehicle: saline, higher = larger tumour): 74 % of control | T/C (endpoint: mean tumor weight, dose: 2.0 mg/kg/injection, schedule: Q01DX011 (ip), vehicle: saline, higher = larger tumour): 102 % of control

O=C(O)CC(O)(CC(=O)O)C(=O)O.[Ga]
T/C [2]: 57 % of control | T/C [3]: 50 % of control | T/C [1]: 34 % of control

O=C(CCCN1CCC(O)(c2cccc(C(F)(F)F)c2)CC1)c1ccc(F)cc1
T/C (endpoint: median survival time, dose: 25.0 mg/kg/injection, schedule: Q04DX003 (ip), vehicle: saline with Tween-80, higher = longer survival): 92 % of control | T/C (endpoint: median survival time, dose: 50.0 mg/kg/injection, schedule: Q04DX003 (ip), vehicle: saline with Tween-80, higher = longer survival): 121 % of control

CN(C)c1ccc(C(N)=O)cn1
T/C (endpoint: mean tumor weight, dose: 1.5 mg/kg/injection, schedule: Q01DX011 (ip), vehicle: saline, higher = larger tumour): 100 % of control | T/C (endpoint: mean tumor weight, dose: 3.0 mg/kg/injection, schedule: Q01DX011 (ip), vehicle: saline, higher = larger tumour): 63 % of control | T/C (endpoint: mean tumor weight, dose: 6.0 mg/kg/injection, schedule: Q01DX011 (ip), vehicle: saline, higher = larger tumour): 36 % of control

CNS(=O)(=O)c1ncnc2nc[nH]c12
T/C (endpoint: mean tumor weight, dose: 22.0 mg/kg/injection, schedule: Q01DX011 (ip), vehicle: carboxymethylcellulose (CMC), higher = larger tumour): 61 % of control | T/C (endpoint: mean tumor weight, dose: 35.0 mg/kg/injection, schedule: Q01DX011 (ip), vehicle: carboxymethylcellulose (CMC), higher = larger tumour): 62 % of control | T/C (endpoint: mean tumor weight, dose: 50.0 mg/kg/injection, schedule: Q01DX011 (ip), vehicle: carboxymethylcellulose (CMC), higher = larger tumour): 56 % of control

CO[C@@H]1[C@@H](OC2OC(C)C(OC3CC(C)(O)C(OC(=O)CC(C)C)C(C)O3)C(N(C)C)C2O)[C@@H](CC=O)C[C@@H](C)C(=O)/C=C/C2O[C@H]2C[C@@H](C)OC(=O)C[C@H]1OC(C)=O (stereo partly drawn)
T/C (endpoint: mean tumor weight, dose: 37.5 mg/kg/injection, schedule: Q01DX011 (ip), vehicle: other, higher = larger tumour): 98 % of control | T/C (endpoint: mean tumor weight, dose: 37.5 mg/kg/injection, schedule: Q01DX011 (ip), vehicle: saline, higher = larger tumour): 83 % of control | T/C (endpoint: mean tumor weight, dose: 75.0 mg/kg/injection, schedule: Q01DX011 (ip), vehicle: other, higher = larger tumour): 76 % of control | T/C (endpoint: mean tumor weight, dose: 150.0 mg/kg/injection, schedule: Q01DX011 (ip), vehicle: other, higher = larger tumour): 47 % of control | T/C (endpoint: mean tumor weight, dose: 150.0 mg/kg/injection, schedule: Q01DX011 (ip), vehicle: saline, higher = larger tumour): 63 % of control and 81 % of control | T/C (endpoint: mean tumor weight, dose: 300.0 mg/kg/injection, schedule: Q01DX011 (ip), vehicle: other, higher = larger tumour): 15 % of control | T/C (endpoint: mean tumor weight, dose: 300.0 mg/kg/injection, schedule: Q01DX011 (ip), vehicle: saline, higher = larger tumour): 44 % of control and 48 % of control
